{"source": "paper PMC6942214", "about": "(Bioorganic & medicinal chemistry letters, 2019)", "key": {"MDM2 [1]": {"target": "T1, MDM2 (Homo sapiens, UniProt Q00987)", "T1 sequence (Q00987 whole entry)": "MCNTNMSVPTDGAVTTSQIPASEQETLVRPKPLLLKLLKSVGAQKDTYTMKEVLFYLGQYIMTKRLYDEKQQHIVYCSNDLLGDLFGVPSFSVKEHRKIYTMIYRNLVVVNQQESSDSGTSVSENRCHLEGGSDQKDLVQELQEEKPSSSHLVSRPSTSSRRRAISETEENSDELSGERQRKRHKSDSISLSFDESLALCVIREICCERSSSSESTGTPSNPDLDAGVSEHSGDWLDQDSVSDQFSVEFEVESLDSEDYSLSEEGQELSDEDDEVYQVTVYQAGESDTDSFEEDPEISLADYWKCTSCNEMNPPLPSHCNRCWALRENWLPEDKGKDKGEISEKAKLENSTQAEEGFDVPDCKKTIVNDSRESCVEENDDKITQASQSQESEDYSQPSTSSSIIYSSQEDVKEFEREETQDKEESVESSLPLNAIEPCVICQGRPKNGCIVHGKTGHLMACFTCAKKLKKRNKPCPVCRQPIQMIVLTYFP", "conditions": "EU-1 ALL cells; cited from earlier work"}, "p53 [2]": {"test_system": "p53", "conditions": "EU-1 ALL cells, dose- and time-dependent; cited from earlier work"}, "normal cells": {"test_system": "normal cells", "conditions": "at therapeutic concentration, preliminary results; cited from earlier work"}, "EU-1 ALL": {"test_system": "EU-1 ALL", "experiment": "WST cytotoxicity assay in EU-1 leukemia cells", "format": "cell-based", "conditions": "read-out: IC50 (μM) EU-1 ALL"}, "p53 [3]": {"test_system": "p53", "experiment": "Western blot of p53 in EU-1 cells", "format": "cell-based"}, "MDM2 [4]": {"target": "T1, MDM2", "experiment": "Western blot of MDM2 in EU-1 cells", "format": "cell-based"}, "[5]": {"test_system": "cell lysate of EU-1 leukemia cells", "experiment": "Prodrug activation in non-denatured EU-1 cell lysate", "format": "in vitro ADME"}, "[6]": {"experiment": "Water solubility by an HPLC method", "format": "physicochemical", "conditions": "ratio of water solubilities"}}, "data": [{"compound": "O=C(CCl)Nc1cc(O)c2c(c1)C(=O)c1cccc(O)c1C2=O", "note": "[BW-AQ-101]", "values": [{"measurement": "effect on MDM2", "setting": "MDM2 [1]", "value": "inhibited MDM2"}, {"measurement": "effect on p53", "setting": "p53 [2]", "value": "induced activation of p53"}, {"measurement": "toxicity to normal cells", "setting": "normal cells", "value": "minimal or no toxicity"}, {"measurement": "IC50", "setting": "EU-1 ALL", "value": 0.83, "unit": "µM"}]}, {"compound": "O=C(CCl)Nc1cc(OCCO)c2c(c1)C(=O)c1cccc(OCCO)c1C2=O", "note": "[BW-AQ-238]", "values": [{"measurement": "p53 level (Western blot)", "setting": "p53 [3]; 0.8 μM, 15-h time point", "value": "increased"}, {"measurement": "p53 level, time course (Western blot)", "setting": "p53 [3]; 1 μM", "value": "elevated after 4 hours of treatment"}, {"measurement": "cytoplasmic MDM2 level (Western blot)", "setting": "MDM2 [4]; 0.8 μM, 15-h time point", "value": "significantly down-regulated"}, {"measurement": "MDM2 level, time course (Western blot)", "setting": "MDM2 [4]; 1 μM", "value": "Down-regulation of MDM2 could be detected after 4-h treatment"}]}, {"compound": "CC(C)[C@H](N)C(=O)OCCOc1cccc2c1C(=O)c1c(OCCOC(=O)[C@@H](N)C(C)C)cc(NC(=O)CCl)cc1C2=O.Cl", "note": "[Compound 9c]", "values": [{"measurement": "time within which the ester bond was cleaved to give parent drug", "setting": "[5]", "value": "≤ 15", "unit": "min"}]}, {"compound": "Cl.N[C@@H](Cc1ccccc1)C(=O)OCCOc1cccc2c1C(=O)c1c(OCCOC(=O)[C@@H](N)Cc3ccccc3)cc(NC(=O)CCl)cc1C2=O", "note": "[Compound 9f]", "values": [{"measurement": "fold greater solubility than parent drug BW-AQ-238", "setting": "[6]", "value": "over 11000 fold"}]}]}
